How the values were obtained:
MK2 = MK2 (Homo sapiens (Human), UniProt P49137); assay: MK2 modification assessment by whole protein mass spectrometry; assay type: binding; settings: intact MK2, 60 min, 10-fold excess of compound to protein
Protocol: Modification of MK2 is measured by whole protein MS analysis. […] 5 μL aliquots of the samples were diluted with 15 μL of 0.2% TFA prior to micro C4 ZipTipping directly onto the MALDI target using sinapinic acid as the desorption matrix (10 mg/ml in 0.1% TFA:Acetonitrile 50:50). Analysis was performed on a AB Sciex 4800 MALDI TOF/TOF retro fitted with an HM2 detector (CovalX). Percent modification of target MK2 (i.e., the percent of total MK2 modified by the test compound) for each compound was calculated by subtracting the centroid mass of the compound treated MK2 from the centroid mass of the control MK2 and dividing that value with the mass of the compound.

[1] = target: p38a activated, mitogen-activated protein kinase-activated protein kinase 2 (MAPKAP-K2 or MK-2) enzyme (Homo sapiens (Human), UniProt P49137); assay: MK2 Omnia continuous-read kinase assay for compound potency; assay type: biochemical; settings: [MK-2]=0.4 nM, [ATP]=1.0 mM, [ST3-Sox]=10 μM
p38a activated, mitogen-activated protein kinase-activated protein kinase 2 (MAPKAP-K2 or MK-2) enzyme, sequence (P49137 whole entry): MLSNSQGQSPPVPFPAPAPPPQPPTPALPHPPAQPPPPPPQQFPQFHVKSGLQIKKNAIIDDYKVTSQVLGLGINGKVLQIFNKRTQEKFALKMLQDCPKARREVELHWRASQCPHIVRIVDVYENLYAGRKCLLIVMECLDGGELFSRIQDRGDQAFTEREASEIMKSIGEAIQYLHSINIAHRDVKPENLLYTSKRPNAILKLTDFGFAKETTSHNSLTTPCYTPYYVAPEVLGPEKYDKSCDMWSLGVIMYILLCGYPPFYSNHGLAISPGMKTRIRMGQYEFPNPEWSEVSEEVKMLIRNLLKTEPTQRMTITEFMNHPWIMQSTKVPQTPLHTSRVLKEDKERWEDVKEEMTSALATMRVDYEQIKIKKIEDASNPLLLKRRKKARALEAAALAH
Description: The protocol below describes a continuous-read kinase assay optimized to measure potency of compounds against p38a activated, mitogen-activated protein kinase-activated protein kinase 2 (MAPKAP-K2 or MK-2) enzyme. The mechanics of the assay platform are best described by the vendor (Invitrogen, Carlsbad, Calif.) on their website at the following URL: invitrogen.com/search/global/searchAction. action?resultPage=1 &resultsPerPage=15 &query=om nia&personaFilterTerm=Support+%26+Troubleshoot
Kinase reactions were started with the addition of 40 μL of MK-2 enzyme and monitored every 71 seconds for 30-240 minutes at λex360/λem485 in a Synergy^2, Synergy^4 or Synergy H^4 plate reader from BioTek (Winooski, Vt.). […] Initial velocity (0 minutes to +30 minutes) from each reaction was estimated from the slope of a plot of relative fluorescence units vs time (minutes) and normalized to the no enzyme and no inhibitor control groups for % Inhibition. The resulting % Inhibition values were then plotted against inhibitor concentration to estimate IC50 from log[Inhibitor] vs Response, Variable Slope model in GraphPad Prism from GraphPad Software (San Diego, Calif.).
[MK-2]=0.4 nM, [ATP]=1.0 mM and [ST3-Sox]=10 μM (ATP ^appKM=8-10 μM)

MK2, sequence (P49137 whole entry): as above

Row | MK2 Mass Mod (MK2) | IC50 [1] | SMILES
1 | E (mass modification of ≥70%) | < 100 nM | C=CC(=O)N1CCOc2ncc(-c3nccc(-c4cc5c([nH]4)CCNC5=O)n3)cc21 [II-23, 2-(2-(1-acryloyl-2,3-dihydro-1H-pyrido[2,3-b][1,4]oxazin-7-yl)pyrimidin-4-yl)-6,7-dihydro-1H-pyrrolo[3,2-c]pyridin-4(5H)-one]
2 | E (mass modification of ≥70%) | < 100 nM | C=CC(=O)N1CCOc2ccc(-c3ncc4c(n3)-c3[nH]c5c(c3CC4)C(=O)NCC5)cc21 [II-24, 2-(4-acryloyl-3,4-dihydro-2H-benzo[b][1,4]oxazin-6-yl)-8,9,10,11-tetrahydro-SH-pyrido[3′,4′:4,5]pyrrolo[3,2-h]i quinazolin-7(6H)-one]
3 | E (mass modification of ≥70%) | < 100 nM | C=CC(=O)N1CCOc2ccc(-c3nccc(-c4cc5c([nH]4)CCNC5=O)n3)cc21 [II-25, 2-(2-(4-acryloyl-3,4-dihydro-2H-benzo[b][1,4]oxazin-6-yl)pyrimidin-4-yl)-6,7-dihydro-1H-pyrrolo[3,2-c]pyridin-4(5H)-one]
4 | G (mass modification ≤30%) | > 1000 nM | CC(C)=CC(=O)COc1cc(NC(=O)c2ccc3sc4c(c3c2)NC[C@@H](C)NC4=O)ccc1F [III-2, (R)—N-(4-fluoro-3-((4-methyl-2-oxopent-3-en-1-yl)oxy)phenyl)-3-methyl-5-oxo-2,3,4,5-tetrahydro-1H-benzo[4,5]thieno[3,2-e][1,4]diazepine-9-carboxamide]
5 | F (mass modification of 31-69%) | > 1000 nM | C[C@@H]1CNc2c(sc3ccc(C(=O)Nc4ccc5c(c4)N(C(=O)/C=C/CN(C)C)CCO5)cc23)C(=O)N1 [III-9, (R,E)-N-(4-(4-(dimethylamino)but-2-enoyl)-3,4-dihydro-2H-benzo[b][1,4]oxazin-6-yl)-3-methyl-5-oxo-2,3,4,5-tetrahydro-1H-benzo[4,5]thieno[3,2-e][1,4]diazepine-9-carboxamide]
6 | G (mass modification ≤30%) | < 100 nM | C=CC(=O)NC1COCC1NC(=O)c1ccc2sc3c(c2c1)NC[C@@H](C)NC3=O (stereo partly drawn) [III-48]
7 | G (mass modification ≤30%) | < 100 nM | C=CC(=O)NC1CS(=O)(=O)CC1NC(=O)c1ccc2sc3c(c2c1)NC[C@@H](C)NC3=O (stereo partly drawn) [III-49]
8 | G (mass modification ≤30%) | < 100 nM | C=CC(=O)NC1CN(C)CC1NC(=O)c1ccc2sc3c(c2c1)NC[C@@H](C)NC3=O (stereo partly drawn) [III-50]
9 | G (mass modification ≤30%) | < 100 nM | C=CC(=O)N1CC(C)(C)Oc2ccc(-c3ccc4c(ccc5sc6c(c54)NC[C@@H](C)NC6=O)n3)cc21 [III-55, (R)-3-(4-acryloyl-2,2-dimethyl-3,4-dihydro-2H-benzo[b][1,4]oxazin-6-yl)-10-methyl-9,10,11,12-tetrahydro-8H-[1,4]diazepino[5′,6′:4,5]thieno[3,2-f]quinolin-8-one]
10 | G (mass modification ≤30%) | 501 to 999 nM | C=CC(=O)Nc1cc(NC(=O)c2ccc3sc4c(c3c2)NC[C@@H](C)NC4=O)ccc1C(F)(F)F [III-57, (R)—N-(3-acrylamido-4-(trifluoromethyl)phenyl)-3-methyl-5-oxo-2,3,4,5-tetrahydro-1H-benzo[4,5]thieno[3,2-e][1,4]diazepine-9-carboxamide]
11 | E (mass modification of ≥70%) | > 1000 nM | C=CC(=O)Nc1cc(-c2cc(-c3cc4c(s3)C(=O)N[C@H](C)CN4)ccn2)ccc1OCCOC [III-d-1, (R)—N-(2-(2-methoxyethoxy)-5-(4-(3-methyl-5-oxo-2,3,4,5-tetrahydro-1H-thieno[3,2-e][1,4]diazepin-7-yl)pyridin-2-yl)phenyl)acrylamide]
12 | G (mass modification ≤30%) | 501 to 999 nM | C=CC(=O)Nc1cc(Nc2c(C)c(NC3CCCNC3)nc3ccnn23)ccc1OCC (stereo not drawn) [IV-1, N-(2-ethoxy-5-((6-methyl-5-(piperidin-3-ylamino)pyrazolo [1,5-a]pyrimidin-7-yl)amino)phenyl)acrylamide]

From patent US11098061B2 (Celgene CAR LLC, priority 2013, dated 2021)
